Measured values as given in patent publication US8450300B2 (priority 2009, dated 2013).
“Also recorded” adds a separate entry of the source. Like-named read-outs stand apart in the source and are kept apart here.

How the values were obtained:
[1] = system: 217 S. aureus Canadian isolates; format: cell-based; settings: 217 Canadian isolates
Description: CLSI broth microdilution (BMD) and anaerobic agar dilution (AD) methods were performed. Modifications of standard test methods included adding 10% human serum, adjusting the medium pH to 5, 6, and 8, and synergy was assessed by the checkerboard method.

[2] = Multi-dose pharmacokinetics 500 mg TID, 13 doses; format: in vivo, human; settings: for AUC: Day 5 (13 doses)
Description: The pharmacokinetics of multiple oral doses of CEM-102 (sodium fusidate) 500 mg tablets in healthy subjects was evaluated. Subjects were randomized in a 3:1 ratio and received either CEM-102 500 mg (2×250 mg; n=18) or placebo tablets TID (n=6) for 4.5 days for a total of 13 doses.
Blood samples for assay of plasma concentrations of CEM-102 and placebo were collected pre-dose on Day 1 and at 24, 48, 72, and 96 hours. Samples were also collected at the following times after the morning dose on Day 5: 0.5, 1, 1.5, 2, 2.5, 3, 3.5, 4, 6, 8, 12, 16, 24, 36, and 48 hours.
Plasma concentrations of CEM-102 were assayed at MicroConstants, Inc. in San Diego, Calif., USA using a validated LC/MS/MS method with a lower limit of quantitation (LLOQ) of 20.0 ng/mL.

[3] = Dose escalation study, single/multiple dose and loading dose regimens: safety and tolerability; format: in vivo
Description: The pharmacokinetics (PK), safety, and tolerability of single and multiple doses of CEM-102 (sodium fusidate) were evaluated in a single-center, Phase 1, double-blind, randomized, placebo-controlled, dose-escalating study in 32 healthy adult subjects enrolled in 4 dosage groups (550, 1100, 1650, and 2200 mg). In each cohort, six subjects were to receive CEM-102 and two were to receive placebo in a single dose (Period 1) and then multiple doses BID for a total of 11 doses over 5.5 days (Period 2). The two dosing periods were separated by a seven-day washout period between the single dose in Period 1 and the first dose in Period 2.
Dosing proceeded as planned for Cohorts 1 to 3; however, Cohort 4 received only the single dose of 2200 mg (Period 1), because dose-limiting gastrointestinal intolerance was observed after multiple doses of 1650 mg BID in Cohort 3. Period 2 for Cohort 4 evaluated an initial loading dose regimen, and a second loading dose regimen was evaluated in an additional cohort (Cohort 5) per a protocol amendment.
The protocol was amended for assessment of the safety, tolerability, and PK of front-loaded dose regimens comprised of a higher dose of CEM-102 on Day 1 followed by lower doses for the subsequent 6.5 days. All loading dose regimens employed multiple doses lower than the maximum tolerated dose (MTD) established in the first part of the study (1650 mg administered as multiple doses).
The loading dose regimens assessed were 1100 mg BID on Day 1 and 550 mg BID on the following 6.5 days in Period 2 of Cohort 4 and 1650 mg BID on Day 1 and 825 mg BID on the following 6.5 days in Cohort 5.

[4] = after the single dose of 2200 mg

## CC(=O)O[C@H]1C[C@@]2(C)[C@@H](C[C@@H](O)[C@H]3[C@@]4(C)CC[C@@H](O)[C@@H](C)[C@@H]4CC[C@@]32C)/C1=C(\CCC=C(C)C)C(=O)O [CEM-102, Sodium fusidate]
[1]
  isolates with MICs of ≧2.0 μg/mL (classified as resistant): 6.5%
[2]; 500 mg TID, prior to dosing on Day 5
  trough level: 105 µg/mL
[2]; human, in vivo, 500 mg
  Cmaxss, geometric mean: 145.68 µg/mL
[2]; human, in vivo, 500 mg, 500 mg TID, read-out: AUC0-tss, geometric mean
  AUC: 3560 µg·h/mL
[2]; human, in vivo, 500 mg, 500 mg TID, read-out: AUC0-τss, geometric mean
  AUC: 1030 µg·h/mL
[3]; administered as multiple doses
  maximum tolerated dose (MTD): 1650 mg
[3]; after multiple doses, all cohorts
  subjects reporting nausea: 9 subjects
[3]; after single doses
  changes in physical examinations, vital signs, ECGs, or laboratory parameters: no clinically significant changes
[3]; [4]
  subjects with nausea alone: 2
  subjects with nausea and vomiting: 1 subject
[3]; doses up to 1650 mg BID for 5.5 days
  safety and tolerability: safe and generally well tolerated
[3]; loading dose regimen 1100/550 mg
  Adverse Event (treatment-emergent, per subject and day): Urinary; also recorded: Nausea; also recorded: Constipation
[3]; loading dose regimens 1100/550 mg and 1650/825 mg, total 7.5 days
  tolerability: very well tolerated
[3]; multiple dose 550 mg BID cohort, blinded listing
  Adverse Event (treatment-emergent, per subject and day): Nausea; also recorded: Epigastric pain; also recorded: Dizziness; also recorded: Elevated BP; also recorded: Headache; also recorded: Tachycardia; also recorded: Pharyngitis; also recorded: Hoarseness; also recorded: Sore throat
[3]; multiple dose 1100 mg BID cohort, blinded listing
  Adverse Event (treatment-emergent, per subject and day): Heartburn; also recorded: Constipation; also recorded: Skin Irritation; also recorded: Nausea; also recorded: Dizziness; also recorded: Viral URI
[3]; multiple doses 550 mg BID
  subjects reporting nausea: 2 subjects
[3]; multiple doses 1100 mg BID
  subjects reporting nausea: 2 subjects
[3]; multiple doses 1650 mg BID
  subjects reporting nausea: 5 subjects
  subjects with vomiting: 4 subjects
[3]; single dose 1650 mg
  Adverse Event (treatment-emergent, per subject and day): None
[3]; single dose 2200 mg
  Adverse Event (treatment-emergent, per subject and day): Nausea; also recorded: Vomiting; also recorded: Abdomen distention
[3]; single dose, 550, 1100 or 1650 mg cohorts
  gastrointestinal AEs: no gastrointestinal AEs
[3]; single doses up to 2200 mg
  tolerability: safe and well tolerated
[3]; single doses up to 2200 mg, multiple doses up to 1650 mg for 5.5 days, or loading dose regimens for 7.5 days
  changes in physical examinations, vital signs, ECGs, or laboratory parameters: no clinically significant changes
[3]; whole study
  overall safety and tolerability: safe and generally well tolerated
  serious or life-threatening adverse events: No serious or life-threatening adverse events
